“And” between values parts separate entries of the source, which are not always exact repeats. Equal values may be shown once. Read-outs that look alike come from different tables or passages of the source.
Columns and labels:
[1] = molecular target: T1, HIV-1 RT-associated RNase H (Human immunodeficiency virus type 1 group M subtype B, UniProt P03366); assay: HIV-1 RT-associated RNase H inhibition assay; assay type: biochemical; parameters: 50 nM of HIV-1 RT; settings: for IC50: 50 nM HIV-1 RT, 15 min at 37 °C, triplicate
Protocol: HIV-1 RT-associated RNase H inhibition assays were carried out in a 384 multiwell format, in 30 µL reaction volume containing 50 mM Tris–HCl buffer pH 7.8, 6 mM MgCl2, 1 mM dithiothreitol (DTT), 80 mM KCl, 0.25 µM hybrid RNA/DNA 5’-[…]-Fluorescin-3’ 5’-Dabcyl-[…]-3’ increasing concentrations of inhibitor, whose dilutions were made in DMSO, and 50 nM of HIV-1 RT. The reaction mixture was incubated for 15 min at 37 °C and products were measured with a multilabel counter plate reader VictorNivo5 (PerkinElmer, Waltham, MA, USA) equipped with filters for 490/528 nm. IC50, the concentration able to inhibit 50% of enzymatic activity, was calculated by non-linear regression curve fit using Prisme v9.0. All experiments were conducted in triplicate.

[2] = in vitro; settings: African green monkey
[3] = system: SARS-CoV-2; assay: microbe, parasite or virus in culture; assay type: cell-based; settings: for EC50: read-out: EC50 for viral replication inhibition; for Inhibitory activity against SARS-CoV-2 replication (in words): with CP-100356
[4] = system: HIV-1; assay: HIV-1 infectivity in HelaP4 cells (CPRG assay); assay type: cell-based; settings: for Reduction of HIV-1 infectivity: at highest non-toxic concentration, 48 h
[5] = system: HIV-1; assay type: cell-based; settings: for Antiviral effect, reduction of GFP fluorescence expression (in words): MT4 cells, FACS
[6] = system: HelaP4 cells; assay: Toxicity to HelaP4 cells (MTT assay); assay type: cell-based
Protocol: HelaP4 cells (10^4 cells/well) were infected with viruses (7.5 ng p24) in the presence of increasing concentration of compounds. Cells were incubated for 48 h before analysis. β-Galactosidase is under the control of the HIV-1 LTR. Infectivity is correlated with the number of infected cells. Cells were lysed for 10 min at 37 °C using 80 µL of lysis buffer (Na2HPO4 60 mM, NaH2PO4 60 mM, KCl 10 mM, MgSO4 10 mM, EDTA 25 mM, and NP-40 0.125%). After lysis, 170 µL of CPRG buffer (phosphate buffer 100 mM, pH 7.4, MgCl2 100 mM, and CPRG 20 mM) was added to each well. The plates were incubated at 37 °C until the color changed to dark red. Finally, a plate reader was used to read the absorbance at 572 nm. The MTT assay varies based on NAD(P)H-dependent cellular oxidoreductase enzymes of viable cells reducing the yellow tetrazolium salt MTT (3-(4,5-dimethylthiazol2-yl)-2,5-diphenyltetrazolium bromide). Spectrophotometric measurement can be used to quantify the insoluble purple formazan product that is produced by this reaction. An amount of 10 µL of MTT reagent (7.5 mg/mL in PBS, pH 7.4) was added to each well of the microtiter plate before incubating at 37 °C for 2 h. After 2 h of incubation, 100 µL of MTT lysis buffer (SDS 10%, HCl 0.01 N, pH 4.7) was added and the resulting optical density (OD) readings were measured at 572 nm.

[7] = system: HIV-1 viral DNA; assay: qPCR of total HIV-1 viral DNA in infected MT4 cells; assay type: cell-based; settings: 30 µM
Protocol: At the same time point, cells were harvested and washed with PBS before centrifugation to form pellets. DNA extraction was carried out using the QIAamp DNA Blood Mini Kit (Qiagen, Hilden, Germany). The procedure involved lysing the cells with AL buffer and Proteinase K to release the DNA. The lysate was then mixed with ethanol to facilitate DNA binding to a silica-based membrane in a spin column. The bound DNA was washed with buffers AW1 and AW2 to remove contaminants, and, finally, the DNA was eluted in 100 μL of water. DNA quantification was performed using quantitative polymerase chain reaction (qPCR) with the Roche LightCycler instrument. Accordingly, DNA quantification was conducted using real-time PCR (qPCR) on the same apparatus. This analysis utilized nucleic acid amounts corresponding to approximately 200,000 cells. The sequences of primers and probes employed for qPCR, aimed at absolute quantification of total HIV-1 viral DNA, have been previously described. The copy numbers of total HIV-1 DNA were ascertained from calibration curves derived from amplifying known quantities of cloned DNA with matching sequences.

[8] = system: MT4 cells; assay: Toxicity ZombieAqua test in MT4 cells; assay type: cell-based; settings: 30 µM, Zombie Aqua
Protocol: MT4 cells (10^5 cells/well) were infected with viruses (100 ng/well) in the presence of increasing concentration of lawsone compounds and the positive control efavirenz (Sigma-Aldrich, St. Louis, MO, USA). After 48 h, cells from each well were washed with PBS and centrifuged (1500 rpm, 5 min). Then, cells were incubated with Zombie Aqua™ (Biolegend, San Diego, CA, USA) dye solution for 15 min in the dark at room temperature to stain dead cells. After that, the cell pellets were washed one more time with PBS before analysis by flow cytometer. Acquisition was performed on a FACS Celesta (BD Biosciences) and analysis was performed using FlowJo v10 software. Cells were first gated on the FSC-H and FSC-A parameters to exclude doublet cells. Then, living cells were selected according to the Zombie Acqua staining (dead cells are stained whereas living cells are not). Finally, the percentage of HIV-1infected cells was measured by analyzing the percentage of GFP+ cells among living cells.

[9] = system: VEROE6-EGFP cells; settings: read-out: CC50 cytotoxic concentration, in the presence of 2 µM CP-100356
[10] = molecular target: T1, HIV-1 RT-associated RNase H; settings: negative control; ref Min et al. [33]; cited from earlier work
[11] = read-out: IC50, HIV-1 RT-associated RNase H activity
[12] = Severe acute respiratory syndrome coronavirus 2, VEROE6-EGFP cells, in the presence of 2 µM CP-100356
[13] = IC50, HIV-1 RT-associated RNase H activity

CCCCCCCNC(C1=C(O)C(=O)c2ccccc2C1=O)c1ccccn1 (stereo not drawn) [Compound 1a]
IC50 [1, 11]: 31.2 ± 6.5 µM

CCCCCCCCCCCCNC(C1=C(O)C(=O)c2ccccc2C1=O)c1ccccn1 (stereo not drawn) [Compound 1b]
IC50 [1, 11]: 4 to 4.4 µM and 4.4 µM

CCCCCCCCCCCCCCNC(C1=C(O)C(=O)c2ccccc2C1=O)c1ccccn1 (stereo not drawn) [Compound 1c]
IC50 [1, 11]: 4 to 4.4 µM and 4 µM

CCCCCCCCCCCCCCCCNC(C1=C(O)C(=O)c2ccccc2C1=O)c1ccccn1 (stereo not drawn) [Compound 1d]
IC50 [1, 11]: 10.7 ± 4.1 µM

O=C1C(O)=C(C(NCc2ccccc2)c2ccccn2)C(=O)c2ccccc21 (stereo not drawn) [Compound 1e]
CC50 [2]: 35.3 ± 1.3 µM
SI, selectivity index CC50/EC50 [3]: 3.15
EC50 [3, 12]: 11.2 ± 2.1 µM
Inhibitory activity against SARS-CoV-2 replication (in words) ([3]; VEROE6-EGFP cells): moderate inhibitory activity
IC50 [1, 13]: 2.8 to 3.1 µM and 3.1 µM

O=C1C(O)=C(C(NCc2ccc(F)c(F)c2)c2ccccn2)C(=O)c2ccccc21 (stereo not drawn) [Compound 1f]
IC50 [1, 11]: 17.4 ± 4.1 µM

CCCCCCCCCCCCNC(C1=C(O)C(=O)c2ccccc2C1=O)c1cccc(Br)n1 (stereo not drawn) [Compound 1g, 3-[(Dodecylamino)(6-bromo-2-pyridyl)methyl]-2-hydroxy-1,4-naphthoquinone]
IC50 [1, 11]: > 100 µM

CCCCCCCCCCCCCCNC(C1=C(O)C(=O)c2ccccc2C1=O)c1cccc(Br)n1 (stereo not drawn) [Compound 1h, 3-[(Tetradecylamino)(6-bromo-2-pyridyl)methyl]-2-hydroxy-1,4-naphthoquinone]
IC50 [1, 11]: > 100 µM

CCCCCCCCCCCCCCCCNC(C1=C(O)C(=O)c2ccccc2C1=O)c1cccc(Br)n1 (stereo not drawn) [Compound 1i, 3-[(Hexadecylamino)(6-bromo-2-pyridyl)methyl]-2-hydroxy-1,4-naphthoquinone]
IC50 [1, 11]: 78.6 ± 11.5 µM

O=C1C(O)=C(C(NCc2ccccc2)c2cccc(Br)n2)C(=O)c2ccccc21 (stereo not drawn) [Compound 1j, 3-[(Benzylamino)(6-bromo-2-pyridyl)methyl]-2-hydroxy-1,4-naphthoquinone]
IC50 [1, 11]: > 100 µM

CCCCCCCCCCCCCCNC(C1=C(O)C(=O)c2ccccc2C1=O)c1ccccc1 (stereo not drawn) [Compound 2a]
IC50 [1, 11]: 21.5 ± 0.9 µM

CCCCCCCCCCCCCCNC(C1=C(O)C(=O)c2ccccc2C1=O)c1ccccc1F (stereo not drawn) [Compound 2b, 3-[(Tetradecylamino)(2-fluorophenyl)methyl]-2-hydroxy-1,4-naphthoquinone]
Reduction of HIV-1 infectivity [4]: 75%
IC50 [1, 11]: 15 ± 5.1 µM
Antiviral effect, reduction of GFP fluorescence expression (in words) [5]: no or weak antiviral effects

CCCCCCCCCCCCCCNC(C1=C(O)C(=O)c2ccccc2C1=O)c1ccccc1Cl (stereo not drawn) [Compound 2c, 3-[(Tetradecylamino)(2-chlorophenyl)methyl]-2-hydroxy-1,4-naphthoquinone]
Reduction of HIV-1 infectivity [4]: 46%
IC50 [1, 11]: 7.3 ± 4.7 µM
Antiviral effect, reduction of GFP fluorescence expression (in words) [5]: no or weak antiviral effects

CCCCCCCCCCCCNC(C1=C(O)C(=O)c2ccccc2C1=O)c1ccccc1O (stereo not drawn) [Compound 2d]
Cytotoxicity (in words) [6]: displayed cytotoxicity
IC50 [1, 13]: 17.6 ± 3.8 µM

CCCCCCCCCCCCCCNC(C1=C(O)C(=O)c2ccccc2C1=O)c1ccccc1O (stereo not drawn) [Compound 2e, 3-[(Tetradecylamino)(2-hydroxyphenyl)methyl]-2-hydroxy-1,4-naphthoquinone]
Antiviral activity against HIV-1 (in words) [4]: no antiviral activity
IC50 [1, 11]: 8.5 ± 1.6 µM

CCCCCCCCCCCCCCCCNC(C1=C(O)C(=O)c2ccccc2C1=O)c1ccccc1O (stereo not drawn) [Compound 2f]
Cytotoxicity (in words) [6]: displayed cytotoxicity
IC50 [1, 13]: 7 ± 0.9 µM

O=C1C(O)=C(C(NCc2ccccc2)c2ccccc2O)C(=O)c2ccccc21 (stereo not drawn) [Compound 2g]
HIV-1 RNase H inhibitory activity (in words) [1]: inactive
IC50 [1, 11]: > 100 µM

O=C1C(O)=C(C(Nc2ccccn2)c2ccccc2O)C(=O)c2ccccc21 (stereo not drawn) [Compound 2h]
HIV-1 RNase H inhibitory activity (in words) [1]: moderate activity
IC50 [1, 11]: 20.8 ± 0.2 µM

CCCCCCCCCCCCNC(C1=C(O)C(=O)c2ccccc2C1=O)c1cc(Cl)cc(Cl)c1O (stereo not drawn) [Compound 2i]
Reduction of HIV-1 infectivity [4]: 65%
IC50 [1, 11]: 4.7 ± 1.6 µM
Antiviral effect, reduction of GFP fluorescence expression (in words) [5]: no or weak antiviral effects

CCCCCCCCCCCCCCNC(C1=C(O)C(=O)c2ccccc2C1=O)c1cc(Cl)cc(Cl)c1O (stereo not drawn) [Compound 2j, 3-[(Tetradecylamino)(3,5-dichloro-2-hydroxyphenyl)methyl]-2-hydroxy-1,4-naphthoquinone]
IC50 [1, 11]: 43.7 ± 3.5 µM

CCCCCCCCCCCCCCCCNC(C1=C(O)C(=O)c2ccccc2C1=O)c1cc(Cl)cc(Cl)c1O (stereo not drawn) [Compound 2k]
CC50 [2]: 41.2 ± 1.3 µM
EC50 [3, 12]: > 41.2 µM
Inhibitory activity against SARS-CoV-2 replication (in words) ([3]; VEROE6-EGFP cells): inactive
Reduction of viral DNA levels [7]: over 50%
IC50 [1, 13]: 2.8 to 3.1 µM and 2.8 µM
Toxicity (in words) [8]: without exhibiting any toxicity
Reduction of percentage of GFP-positive cells [5]: half

O=C1C(O)=C(C(NCc2ccccc2)c2cc(Cl)cc(Cl)c2O)C(=O)c2ccccc21 (stereo not drawn) [Compound 2l, 3-[(Benzylamino)(3,5-dichloro-2-hydroxyphenyl)methyl]-2-hydroxy-1,4-naphthoquinone]
Reduction of HIV-1 infectivity [4]: 48%
HIV-1 RNase H inhibitory activity (in words) [1]: moderate activities
IC50 [1, 11]: 12.7 ± 3.4 µM
Antiviral effect, reduction of GFP fluorescence expression (in words) [5]: no or weak antiviral effects

CCCCCCCCCCCCNC(C1=C(O)C(=O)c2ccccc2C1=O)c1cc(Br)cc(Br)c1O (stereo not drawn) [Compound 2m]
Antiviral activity against HIV-1 (in words) [4]: no antiviral activity
IC50 [1, 11]: 7.1 ± 1.1 µM

CCCCCCCCCCCCCCNC(C1=C(O)C(=O)c2ccccc2C1=O)c1cc(Br)cc(Br)c1O (stereo not drawn) [Compound 2n, 3-[(Tetradecylamino)(3,5-dibromo-2-hydroxyphenyl)methyl]-2-hydroxy-1,4-naphthoquinone]
IC50 [1, 11]: 105 ± 10.6 µM

CCCCCCCCCCCCCCCCNC(C1=C(O)C(=O)c2ccccc2C1=O)c1cc(Br)cc(Br)c1O (stereo not drawn) [Compound 2o]
IC50 [1, 11]: 32.5 ± 10.5 µM

O=C1C(O)=C(C(NCc2ccccc2)c2cc(Br)cc(Br)c2O)C(=O)c2ccccc21 (stereo not drawn) [Compound 2p, 3-[(Benzylamino)(3,5-dibromo-2-hydroxyphenyl)methyl]-2-hydroxy-1,4-naphthoquinone]
Reduction of HIV-1 infectivity [4]: 70%
HIV-1 RNase H inhibitory activity (in words) [1]: moderate activities
IC50 [1, 11]: 19.6 ± 3.4 µM
Antiviral effect, reduction of GFP fluorescence expression (in words) [5]: no or weak antiviral effects

CC(C)C[C@H](NC(=O)OCc1ccccc1)C(=O)N[C@@H](CC1CCNC1=O)C(O)S(=O)(=O)O (stereo partly drawn) [GC-376, reference compound]
EC50 [3]: 0.84 ± 0.08 µM
CC50 [9]: > 100 µM

O=C1C=C(O)C(=O)c2ccccc21 [Lawsone, 2-Hydroxy-1,4-naphthoquinone]
IC50, HIV-1 RT-associated RNase H activity [10]: >100 µM

From article PMC11820915, “Identification of HIV-1 Reverse Transcriptase-Associated Ribonuclease H Inhibitors Based on 2-Hydroxy-1,4-naphthoquinone Mannich Bases” (Molecules, 2025)
